Several values for one entry are separate records, joined by “and”; a condition that tells them apart may be missing. Equal values may be shown once. Toxic doses and inconclusive results are not listed.

This assay relates to P388 leukemia ip, CD2F1 mice, survival T/C. The assay is described as follows: NCI In Vivo Anticancer Drug Screen. Data for tumor model P388 Leukemia (intraperitoneal) in CD2F1 (CDF1) mice. To be noted: endpoint: median survival time, higher = longer survival. The procedure, abridged: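 Mice carrying the transplanted tumor received test compound or vehicle. Survival was recorded in each group, and the value is the treated-group measurement divided by that of the vehicle-treated control group.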

Setting [1] is: dose: 50.0 mg/kg/injection, schedule: Q01DX009 (ip), vehicle: saline.
[2] abbreviates: dose: 50.0 mg/kg/injection, schedule: Q01DX005 (ip), vehicle: saline with Tween-80.
[3] abbreviates: dose: 100.0 mg/kg/injection, schedule: Q01DX005 (ip), vehicle: saline with Tween-80.
Where [4] appears, read: dose: 200.0 mg/kg/injection, schedule: Q01DX005 (ip), vehicle: saline with Tween-80.
The mark [5] stands for this setting: dose: 400.0 mg/kg/injection, schedule: Q01DX009 (ip), vehicle: saline.
[6] abbreviates: dose: 100.0 mg/kg/injection, schedule: Q01DX009 (ip), vehicle: saline.
Where [7] appears, read: dose: 200.0 mg/kg/injection, schedule: Q01DX009 (ip), vehicle: saline.
Setting [8] is: dose: 50.0 mg/kg/injection, schedule: Q01DX005 (ip), vehicle: Klucel (hydroxypropylcellulose) (HPC).
Where [9] appears, read: dose: 100.0 mg/kg/injection, schedule: Q01DX005 (ip), vehicle: Klucel (hydroxypropylcellulose) (HPC).
Setting [10] is: dose: 200.0 mg/kg/injection, schedule: Q01DX005 (ip), vehicle: Klucel (hydroxypropylcellulose) (HPC).
[11] abbreviates: dose: 60.0 mg/kg/injection, schedule: Q01DX005 (ip), vehicle: saline with Tween-80.
Where [12] appears, read: dose: 120.0 mg/kg/injection, schedule: Q01DX005 (ip), vehicle: saline with Tween-80.
The mark [13] stands for this setting: dose: 240.0 mg/kg/injection, schedule: Q01DX005 (ip), vehicle: saline with Tween-80.

For the compound `CC1(C)N=C(N)N=C(N)N1c1cccc(CNC(=O)Nc2cccc(S(=O)(=O)F)c2)c1`, the T/C was 159 % of control (dose: 44.0 mg/kg/injection, schedule: Q01DX009 (ip), vehicle: saline with Tween-80); 163 % of control under setting [1]; 163 % of control (dose: 67.0 mg/kg/injection, schedule: Q01DX009 (ip), vehicle: saline with Tween-80); 168 % of control (dose: 100.0 mg/kg/injection, schedule: Q01DX009 (ip), vehicle: saline with Tween-80).
`O=S(=O)(O)O.[Cu+2].[NH-]CCCCC[NH-].[NH-]CCCCC[NH-]`: the T/C (dose: 1.56 mg/kg/injection, schedule: Q04DX002 (ip), vehicle: Klucel (hydroxypropylcellulose) (HPC)) is 100 % of control; the T/C (dose: 3.12 mg/kg/injection, schedule: Q04DX002 (ip), vehicle: Klucel (hydroxypropylcellulose) (HPC)) was 98 % of control; the T/C (dose: 6.25 mg/kg/injection, schedule: Q04DX002 (ip), vehicle: Klucel (hydroxypropylcellulose) (HPC)) is 100 % of control; the T/C (dose: 12.5 mg/kg/injection, schedule: Q04DX002 (ip), vehicle: Klucel (hydroxypropylcellulose) (HPC)) is 88 % of control and 98 % of control.
As for `O=C(OC[P+](c1ccccc1)(c1ccccc1)c1ccccc1)c1ccccc1`, the T/C under setting [1] is 89 % of control.
With `COC(=O)C1c2cc3c(c(O)c2C(OC)CC1(C)O)C(=O)c1c(O)cc2c(c1C3=O)OC1OC2(C)C(O)C(N(C)C)C1O` (configuration not stated), the T/C is, setting by setting: (dose: 3.16 mg/kg/injection, schedule: Q01DX009 (ip), vehicle: other) 156 % of control; (dose: 5.0 mg/kg/injection, schedule: Q01DX009 (ip), vehicle: other) 161 % of control; (dose: 6.25 mg/kg/injection, schedule: Q01DX009 (ip), vehicle: other) 168 % of control; (dose: 10.0 mg/kg/injection, schedule: Q01DX009 (ip), vehicle: other) 171 % of control; (dose: 12.5 mg/kg/injection, schedule: Q01DX009 (ip), vehicle: other) 168 % of control; (dose: 20.0 mg/kg/injection, schedule: Q01DX009 (ip), vehicle: other) 171 % of control. For the same compound, the T/C is, setting by setting: (dose: 25.0 mg/kg/injection, schedule: Q01DX009 (ip), vehicle: other) 198 % of control; (dose: 40.0 mg/kg/injection, schedule: Q01DX009 (ip), vehicle: other) 117 % of control.
Take `N#CCCn1nc(SCc2ccccc2)c(=S)[nH]c1=O`: the T/C is, setting by setting: under setting [2], 95 % of control; under setting [3], 98 % of control; under setting [4], 100 % of control.
As for `CC(c1ccccc1)C1CCN(C)CC1` (configuration not stated), the T/C is, setting by setting: (dose: 12.5 mg/kg/injection, schedule: Q04DX002 (ip), vehicle: saline) 99 % of control; (dose: 25.0 mg/kg/injection, schedule: Q04DX002 (ip), vehicle: saline) 100 % of control.
Regarding `COc1cc(/C=N/N2CC(=O)N(c3ccccc3)CC2=O)cc(OC)c1`, the T/C was 97 % of control (dose: 6.25 mg/kg/injection, schedule: Q01DX005 (ip), vehicle: saline with Tween-80); 100 % of control (dose: 12.5 mg/kg/injection, schedule: Q01DX005 (ip), vehicle: saline with Tween-80); 100 % of control (dose: 25.0 mg/kg/injection, schedule: Q01DX005 (ip), vehicle: saline with Tween-80).
`O=c1ncccn1[C@@H]1O[C@H](CO)[C@H](O)C1O` (some centres not stated): the T/C is 103 % of control (dose: 6.25 mg/kg/injection, schedule: Q01DX009 (ip), vehicle: water); 104 % of control (dose: 12.5 mg/kg/injection, schedule: Q01DX009 (ip), vehicle: water); 101 % of control (dose: 25.0 mg/kg/injection, schedule: Q01DX009 (ip), vehicle: water); 102 % of control (dose: 50.0 mg/kg/injection, schedule: Q01DX009 (ip), vehicle: water); 108 % of control (dose: 100.0 mg/kg/injection, schedule: Q01DX009 (ip), vehicle: water); 152 % of control under setting [5].
For the compound `Cc1[nH]c(=O)[nH]c(=O)c1/C=C/C(=O)O`, the T/C by setting is: (dose: 25.0 mg/kg/injection, schedule: Q01DX009 (ip), vehicle: Klucel (hydroxypropylcellulose) (HPC)) 100 % of control; (dose: 50.0 mg/kg/injection, schedule: Q01DX009 (ip), vehicle: Klucel (hydroxypropylcellulose) (HPC)) 100 % of control; (dose: 100.0 mg/kg/injection, schedule: Q01DX009 (ip), vehicle: Klucel (hydroxypropylcellulose) (HPC)) 102 % of control; (dose: 200.0 mg/kg/injection, schedule: Q01DX009 (ip), vehicle: Klucel (hydroxypropylcellulose) (HPC)) 102 % of control.
As to `COc1ccc(N2C(=O)C(N=Nc3ccc(S(=O)(=O)Nc4ncccn4)cc3)C(=O)N(c3ccccc3)C2=S)cc1` (configuration not stated), the T/C by setting is: (dose: 50.0 mg/kg/injection, schedule: Q01DX005 (ip), vehicle: saline) 103 % of control; (dose: 100.0 mg/kg/injection, schedule: Q01DX005 (ip), vehicle: saline) 95 % of control; (dose: 200.0 mg/kg/injection, schedule: Q01DX005 (ip), vehicle: saline) 98 % of control.
`CC(=O)NCNC(C)=O`: the T/C was 100 % of control under setting [1], 97 % of control under setting [6] and 108 % of control under setting [7].
For `CCCN(CCC)C(=O)C(c1ccccc1)C(O)(c1ccccc1)c1ccccc1` (configuration not stated), the T/C was 100 % of control under setting [8], 95 % of control under setting [9] and 92 % of control under setting [10].
For `O=[N+]([O-])c1cccc(NC(c2ccccc2)S(=O)(=O)O)c1` (configuration not stated), the T/C reads like this: under setting [1], 104 % of control; under setting [6], 114 % of control; under setting [7], 106 % of control.
As for `C1=CN2C(c3ccccc3)=NN(c3ccccc3)[C@@H]2c2ccccc21`, the T/C (dose: 1.87 mg/kg/injection, schedule: Q01DX005 (ip), vehicle: saline with Tween-80) is 102 % of control; the T/C (dose: 3.75 mg/kg/injection, schedule: Q01DX005 (ip), vehicle: saline with Tween-80) was 102 % of control; the T/C (dose: 7.5 mg/kg/injection, schedule: Q01DX005 (ip), vehicle: saline with Tween-80) was 103 % of control and 93 % of control.
On to `CSC1=NCc2c(sc3c2CCCC3)N1`, for which the T/C is, setting by setting: under setting [8], 100 % of control; under setting [9], 106 % of control; under setting [10], 98 % of control.
For the compound `CCC1CN2CCc3cc(OC)c(OC)cc3C2C/C1=C/C(=O)O` (configuration not stated), the T/C runs as follows: (dose: 50.0 mg/kg/injection, schedule: Q01DX009 (ip), vehicle: suspension in saline) 95 % of control; (dose: 100.0 mg/kg/injection, schedule: Q01DX009 (ip), vehicle: suspension in saline) 92 % of control.
Turning to `COc1ccc(C(=O)C(C)Sc2ccccc2)cc1OC` (configuration not stated), the T/C was 108 % of control (dose: 10.0 mg/kg/injection, schedule: Q01DX005 (ip), vehicle: Klucel (hydroxypropylcellulose) (HPC)); 105 % of control (dose: 20.0 mg/kg/injection, schedule: Q01DX005 (ip), vehicle: Klucel (hydroxypropylcellulose) (HPC)); 101 % of control (dose: 40.0 mg/kg/injection, schedule: Q01DX005 (ip), vehicle: Klucel (hydroxypropylcellulose) (HPC)).
Take `COc1nccnn1`: the T/C is, setting by setting: under setting [1], 95 % of control; under setting [6], 91 % of control; under setting [7], 95 % of control; under setting [5], 107 % of control.
Take `Cc1cc2c(-c3ccccc3)c3cc(C)c(N)cc3nc2cc1N`: the T/C is 101 % of control (dose: 6.25 mg/kg/injection, schedule: Q01DX005 (ip), vehicle: Klucel (hydroxypropylcellulose) (HPC)); 100 % of control (dose: 12.5 mg/kg/injection, schedule: Q01DX005 (ip), vehicle: Klucel (hydroxypropylcellulose) (HPC)); 99 % of control (dose: 25.0 mg/kg/injection, schedule: Q01DX005 (ip), vehicle: Klucel (hydroxypropylcellulose) (HPC)).
For `CCc1cccc(CC)c1NC1=C(Cl)C(=O)c2ccccc2C1=O`, the T/C is 100 % of control under setting [11], 94 % of control under setting [12] and 104 % of control under setting [13].
As to `C[C@@]12CCCC[C@@H]1N(CCN1CCCCC1)c1ccccc12`, the T/C is, setting by setting: under setting [11], 95 % of control; under setting [12], 105 % of control; under setting [13], 98 % of control.
As for `O=C1CN(c2cccc(Cl)c2)C(=O)CN1/N=C/c1ccco1`, the T/C is 109 % of control under setting [2], 107 % of control under setting [3] and 98 % of control under setting [4].
Consider `COc1ccc(S(=O)(=O)F)cc1C(=O)O`, for which the T/C is, setting by setting: under setting [11], 114 % of control; under setting [12], 112 % of control; under setting [13], 104 % of control.

Values taken from PubChem BioAssay AID330 (DTP/NCI, 2004).
